Results as given in PMC11765572 (International Journal of Molecular Sciences, 2025).
Where two headings read alike, the source gives them in different places.

Key:
[1] = tested on: SARS-CoV-2 (BetaCov/Belgium/GHB-03021/2020 B.1 lineage A); test: microbe, parasite or virus in culture; conditions: Severe acute respiratory syndrome coronavirus 2, 96 h, mean ± SD of two independent replicates
[2] = tested on: SARS-CoV-2 (BetaCov/Belgium/GHB-03021/2020 B.1 lineage A); conditions: […]; mean ± SD of two independent replicates
[3] = in vitro; conditions: African green monkey
[4] = tested on: SARS-CoV-2 delta strains; set-up: method as in PMID 39072488; conditions: delta strain, Vero E6 cells, viral copy numbers in supernatant by qRT-PCR; cited from earlier work
[5] = molecular target: T1, SARS-CoV-2 M^pro (Severe acute respiratory syndrome coronavirus 2, UniProt P0DTD1); test: biochemical; conditions: FRET; for IC50: substrate Dabcyl-[…]-Edans, mean ± SD of three independent measurements; for inhibition at 1 µM: single concentration of 1 μM, read-out: inhibition rate
T1 construct: main protease (M^pro, also known as Nsp5 and 3C-like protease); purchased Beyotime P0312S

[6] = tested on: SARS-CoV-2 (BetaCov/Belgium/GHB-03021/2020 B.1 lineage A); conditions: VeroE6-eGFP cells; from a previous report, measured under identical conditions; cited from earlier work
[7] = tested on: VeroE6-eGFP cells; conditions: from a previous report, measured under identical conditions; cited from earlier work

## CNC(=O)c1cc(Br)cc([N+](=O)[O-])c1N[C@@H]1CCCC[C@@H]1NC(=O)c1cc(=O)[nH]c2ccccc12 [Compound A9, N-((1S,2R)-2-((4-bromo-2-(methylcarbamoyl)-6-nitrophenyl)amino)cyclohexyl)-2-oxo-1,2-dihydroquinoline-4-carboxamide]
[1]
  EC50: 180 ± 20 nM
[2]
  EC50: micromolar or submicromolar range
[3]
  CC50 at 5 days: > 100000 nM
[4]
  EC50: 849 nM
[5]
  IC50: 154 ± 6 nM
  inhibition at 1 µM: 92%

## CNC(=O)c1cc(Br)cc([N+](=O)[O-])c1N[C@@H]1CCCC[C@@H]1NC(=O)c1cccnc1 [Compound A5, N-((1S,2R)-2-((4-bromo-2-(methylcarbamoyl)-6-nitrophenyl)amino)cyclohexyl)nicotinamide]
[1]
  EC50: 2010 to 6050 nM
[3]
  CC50 at 5 days: > 100000 nM
[5]
  IC50: 1050 ± 67 nM
  inhibition at 1 µM: 53.7%

## CC(C)(C)[C@H](NC(=O)C(F)(F)F)C(=O)N1C[C@H]2[C@@H]([C@H]1C(=O)N[C@H](C#N)C[C@@H]1CCNC1=O)C2(C)C [Nirmatrelvir]
[6]
  EC50: 123 ± 34 nM
[7]
  CC50: > 100000 nM

## CNC(=O)c1cc(Br)cc([N+](=O)[O-])c1N[C@@H]1CCCC[C@@H]1NC(=O)c1cncc(O)c1 [Compound A6, N-((1S,2R)-2-((4-bromo-2-(methylcarbamoyl)-6-nitrophenyl)amino)cyclohexyl)-5-hydroxynicotinamide]
[3]
  CC50 at 5 days: > 100000 nM
[5]
  IC50: 1080 ± 23 nM
  inhibition at 1 µM: 55.5%
